# According to patent US20260337208A1, “HETEROCYCLIC DERIVATIVES AS JANUS KINASE INHIBITORS” (CHIESI FARMACEUTICI S.P.A., priority 2022, published 2026):
# Experiments:
# [1] = biological target: TYK2 (Homo sapiens, UniProt P29597); experiment: Biochemical potency on Tyk2, TR-FRET (LANCE Ultra kinase assay); settings: ATP corresponding to Km; cell-free; read-out: TYK2 inhibitory activity (pIC50) (converted)
# How it was run: (§1)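 ULight-JAK-1 (Tyr1023) peptide phosphorylation at Km ATP, 1.5 h r.t.; substrate solution held peptide 30/50/20/10 nM and ATP 20/0.7/0.2/12 μM, enzyme solution 0.15/0.083/0.025/0.144 ng/μL (JAK1/JAK2/JAK3/TYK2). EDTA stop, Eu-PT66 antibody TR-FRET read at 665 nm; 11-point 5-fold dilutions from 20 μM; IC50 by variable-slope fit.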
# [2] = tested on: pSTAT6 in BEAS-2B human cell line; experiment: Inhibition of IL-13 induced pSTAT6 in BEAS; type: cell-based; settings: for IC50: Homo sapiens, BEAS-2B, 0.5 h, IL-13 trigger, 30 min, parent compound; for Fold difference parent vs predicted acid metabolite: ratio=IC50 predicted acid metabolite/IC50 ester
# How it was run: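 BEAS-2B cells grown 48 h, pre-treated 30 min with compound, then stimulated 30 min with IL-13. Lysate pSTAT6 (Tyr641) measured by sandwich ELISA. Eleven 5-fold dilutions from 10 μM, in duplicate, fitted to IC50.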
# [3] = biological target: T1, JAK3 (Homo sapiens, UniProt P52333); experiment: Biochemical potency on JAK3, TR-FRET (LANCE Ultra kinase assay); settings: ATP corresponding to Km; cell-free; read-out: JAK3 inhibitory activity (pIC50) (converted)
# T1 sequence (P52333 1-1124): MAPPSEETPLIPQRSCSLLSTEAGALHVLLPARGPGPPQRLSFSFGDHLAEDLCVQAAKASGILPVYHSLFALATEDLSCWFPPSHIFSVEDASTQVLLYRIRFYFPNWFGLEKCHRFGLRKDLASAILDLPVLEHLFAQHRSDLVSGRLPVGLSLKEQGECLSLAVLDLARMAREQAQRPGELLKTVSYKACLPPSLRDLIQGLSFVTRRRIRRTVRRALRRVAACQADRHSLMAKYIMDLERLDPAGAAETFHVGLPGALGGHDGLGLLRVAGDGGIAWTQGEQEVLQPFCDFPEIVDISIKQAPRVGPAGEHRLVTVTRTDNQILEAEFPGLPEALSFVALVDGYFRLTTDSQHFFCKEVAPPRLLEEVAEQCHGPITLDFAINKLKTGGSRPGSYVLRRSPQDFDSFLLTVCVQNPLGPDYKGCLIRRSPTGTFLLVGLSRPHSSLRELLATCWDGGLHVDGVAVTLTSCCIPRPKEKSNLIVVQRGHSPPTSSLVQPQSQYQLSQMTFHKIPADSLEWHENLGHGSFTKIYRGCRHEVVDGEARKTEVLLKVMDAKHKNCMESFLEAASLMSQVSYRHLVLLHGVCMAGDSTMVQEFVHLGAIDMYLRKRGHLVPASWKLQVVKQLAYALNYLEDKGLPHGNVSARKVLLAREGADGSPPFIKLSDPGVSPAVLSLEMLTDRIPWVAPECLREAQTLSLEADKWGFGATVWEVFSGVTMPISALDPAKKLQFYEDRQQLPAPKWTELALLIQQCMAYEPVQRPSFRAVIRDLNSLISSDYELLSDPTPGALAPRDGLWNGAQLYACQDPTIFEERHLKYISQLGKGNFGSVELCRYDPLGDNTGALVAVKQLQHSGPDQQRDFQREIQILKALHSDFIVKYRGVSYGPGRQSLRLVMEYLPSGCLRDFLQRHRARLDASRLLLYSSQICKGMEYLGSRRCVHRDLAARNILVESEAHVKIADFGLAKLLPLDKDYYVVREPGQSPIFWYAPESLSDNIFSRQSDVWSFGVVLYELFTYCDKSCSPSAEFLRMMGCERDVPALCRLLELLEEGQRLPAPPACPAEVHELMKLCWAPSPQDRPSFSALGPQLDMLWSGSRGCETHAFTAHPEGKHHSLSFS
# How it was run: as §1
# [4] = biological target: JAK1 (Homo sapiens, UniProt P23458); experiment: Biochemical potency on JAK1, TR-FRET (LANCE Ultra kinase assay); settings: ATP corresponding to Km; cell-free; read-out: JAK1 inhibitory activity (pIC50) (converted)
# JAK1, sequence (P23458 whole entry): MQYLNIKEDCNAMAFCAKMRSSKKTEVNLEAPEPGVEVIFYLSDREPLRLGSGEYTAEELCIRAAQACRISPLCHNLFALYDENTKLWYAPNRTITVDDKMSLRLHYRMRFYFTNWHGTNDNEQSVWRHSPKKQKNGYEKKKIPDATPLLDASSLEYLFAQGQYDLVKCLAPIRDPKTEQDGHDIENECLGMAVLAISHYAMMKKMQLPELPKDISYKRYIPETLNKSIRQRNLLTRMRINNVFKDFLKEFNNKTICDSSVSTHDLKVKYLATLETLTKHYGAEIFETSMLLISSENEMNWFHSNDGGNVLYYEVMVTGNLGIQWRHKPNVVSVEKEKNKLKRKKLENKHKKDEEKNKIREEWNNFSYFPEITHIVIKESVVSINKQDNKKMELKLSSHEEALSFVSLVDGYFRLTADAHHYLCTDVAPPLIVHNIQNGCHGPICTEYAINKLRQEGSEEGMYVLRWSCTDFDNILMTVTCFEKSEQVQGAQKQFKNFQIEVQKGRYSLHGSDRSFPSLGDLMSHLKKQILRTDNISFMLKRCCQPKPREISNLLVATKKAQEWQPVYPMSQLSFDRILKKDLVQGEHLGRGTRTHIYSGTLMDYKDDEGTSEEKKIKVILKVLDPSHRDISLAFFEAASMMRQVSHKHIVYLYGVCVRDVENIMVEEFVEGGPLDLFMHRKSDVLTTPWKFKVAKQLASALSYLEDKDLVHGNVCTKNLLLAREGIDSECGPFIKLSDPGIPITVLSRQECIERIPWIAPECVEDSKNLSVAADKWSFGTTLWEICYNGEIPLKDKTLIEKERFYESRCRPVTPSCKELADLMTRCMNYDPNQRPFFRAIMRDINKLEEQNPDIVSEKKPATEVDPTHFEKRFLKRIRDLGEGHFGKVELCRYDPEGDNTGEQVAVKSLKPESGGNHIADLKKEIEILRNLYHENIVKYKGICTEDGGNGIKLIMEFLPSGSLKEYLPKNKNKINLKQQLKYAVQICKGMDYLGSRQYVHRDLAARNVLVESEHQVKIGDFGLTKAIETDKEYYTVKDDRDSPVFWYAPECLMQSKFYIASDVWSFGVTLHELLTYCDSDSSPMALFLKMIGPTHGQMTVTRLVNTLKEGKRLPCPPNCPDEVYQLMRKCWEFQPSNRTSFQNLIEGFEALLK
# How it was run: as §1
# [5] = biological target: JAK2 (Homo sapiens, UniProt O60674); experiment: Biochemical potency on JAK2, TR-FRET (LANCE Ultra kinase assay); settings: ATP corresponding to Km; cell-free; read-out: JAK2 inhibitory activity (pIC50) (converted)
# JAK2, sequence (O60674 whole entry): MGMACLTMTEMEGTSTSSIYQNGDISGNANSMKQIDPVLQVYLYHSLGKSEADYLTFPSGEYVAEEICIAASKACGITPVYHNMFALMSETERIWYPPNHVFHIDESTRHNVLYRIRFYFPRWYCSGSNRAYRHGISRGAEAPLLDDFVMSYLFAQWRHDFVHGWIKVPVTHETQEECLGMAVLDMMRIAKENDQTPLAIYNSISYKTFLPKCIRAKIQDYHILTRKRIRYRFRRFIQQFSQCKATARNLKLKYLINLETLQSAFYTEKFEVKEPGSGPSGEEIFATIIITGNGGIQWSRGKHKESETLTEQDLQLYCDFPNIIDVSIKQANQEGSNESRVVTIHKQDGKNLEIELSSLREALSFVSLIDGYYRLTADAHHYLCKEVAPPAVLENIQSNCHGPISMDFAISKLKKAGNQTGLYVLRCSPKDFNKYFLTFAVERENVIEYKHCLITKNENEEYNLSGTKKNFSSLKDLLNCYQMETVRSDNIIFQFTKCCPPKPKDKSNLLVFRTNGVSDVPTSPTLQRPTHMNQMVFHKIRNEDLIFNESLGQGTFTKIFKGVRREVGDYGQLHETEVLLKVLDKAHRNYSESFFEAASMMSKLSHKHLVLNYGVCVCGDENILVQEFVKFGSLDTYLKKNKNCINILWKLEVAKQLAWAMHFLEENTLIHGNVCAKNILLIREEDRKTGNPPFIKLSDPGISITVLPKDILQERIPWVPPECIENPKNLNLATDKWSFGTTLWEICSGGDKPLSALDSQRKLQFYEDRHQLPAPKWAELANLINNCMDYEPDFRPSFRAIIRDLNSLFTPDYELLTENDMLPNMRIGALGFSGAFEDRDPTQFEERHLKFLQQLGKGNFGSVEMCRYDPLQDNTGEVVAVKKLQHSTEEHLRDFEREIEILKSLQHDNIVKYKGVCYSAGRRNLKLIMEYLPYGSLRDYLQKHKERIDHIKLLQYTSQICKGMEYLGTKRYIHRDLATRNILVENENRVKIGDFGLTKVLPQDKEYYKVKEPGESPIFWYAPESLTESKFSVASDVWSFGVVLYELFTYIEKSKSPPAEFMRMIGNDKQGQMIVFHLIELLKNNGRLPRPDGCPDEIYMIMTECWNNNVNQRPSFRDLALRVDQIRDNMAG
# How it was run: as §1
# TYK2, sequence (P29597 whole entry): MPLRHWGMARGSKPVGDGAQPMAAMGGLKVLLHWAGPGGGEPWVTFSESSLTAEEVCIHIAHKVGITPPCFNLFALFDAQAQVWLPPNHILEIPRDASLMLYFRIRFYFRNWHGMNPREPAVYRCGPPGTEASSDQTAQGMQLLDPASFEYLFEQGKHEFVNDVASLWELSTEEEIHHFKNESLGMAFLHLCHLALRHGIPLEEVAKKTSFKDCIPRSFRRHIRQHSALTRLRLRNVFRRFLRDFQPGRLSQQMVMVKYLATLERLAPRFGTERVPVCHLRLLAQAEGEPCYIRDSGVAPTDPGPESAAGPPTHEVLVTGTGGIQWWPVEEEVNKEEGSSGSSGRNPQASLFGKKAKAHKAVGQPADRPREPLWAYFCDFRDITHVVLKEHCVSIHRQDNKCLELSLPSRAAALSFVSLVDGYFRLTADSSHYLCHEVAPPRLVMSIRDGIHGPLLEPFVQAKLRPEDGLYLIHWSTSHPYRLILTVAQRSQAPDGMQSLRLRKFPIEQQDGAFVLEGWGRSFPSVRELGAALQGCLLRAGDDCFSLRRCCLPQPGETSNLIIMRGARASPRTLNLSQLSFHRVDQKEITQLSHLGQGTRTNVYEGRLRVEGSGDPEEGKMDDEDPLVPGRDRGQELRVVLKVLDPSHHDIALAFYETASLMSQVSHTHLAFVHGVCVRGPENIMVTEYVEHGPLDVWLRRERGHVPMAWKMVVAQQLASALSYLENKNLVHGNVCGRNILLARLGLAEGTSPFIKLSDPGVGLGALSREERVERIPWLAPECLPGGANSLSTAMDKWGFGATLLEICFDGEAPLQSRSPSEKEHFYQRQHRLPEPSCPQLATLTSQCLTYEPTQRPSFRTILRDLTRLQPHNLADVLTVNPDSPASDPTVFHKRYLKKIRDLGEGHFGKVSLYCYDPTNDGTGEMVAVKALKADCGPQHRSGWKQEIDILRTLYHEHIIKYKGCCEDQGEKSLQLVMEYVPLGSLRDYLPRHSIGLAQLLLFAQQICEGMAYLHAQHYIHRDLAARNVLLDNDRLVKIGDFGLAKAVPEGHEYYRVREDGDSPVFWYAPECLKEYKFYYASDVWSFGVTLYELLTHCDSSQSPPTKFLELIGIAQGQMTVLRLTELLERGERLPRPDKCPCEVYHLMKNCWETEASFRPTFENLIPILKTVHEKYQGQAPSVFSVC
SMILES,IC50 [1] [nM],IC50 [3] [nM],IC50 [4] [nM],IC50 [5] [nM],IC50 [2] [nM],Fold difference parent vs predicted acid metabolite [2]
"COc1cc2c(cc1-n1nc(C(=O)NCCN3CC[C@H](C(=O)O[C@@H]4CCN(C)C4)C3)c3cnc(-c4cnn5cccnc45)cc31)OCCN2 [Example 56, (R)-1-methylpyrrolidin-3-yl (S)-1-(2-(1-(6-methoxy-3,4-dihydro-2H-benzo[b][1,4]oxazin-7-yl)-6-(pyrazolo[1,5-a]pyrimidin-3-yl)-1H-pyrazolo[4,3-c]pyridine-3-carboxamido)ethyl)pyrrolidine-3-carboxylate]",5.01 to 50.1,≤ 5.01,≤ 5.01,≤ 5.01,5.01 to 50.1,kk (100>ratio≥10)
"COc1cc2c(cc1-n1nc(C(=O)NCCN3CCC(C(=O)O[C@@H]4CCN(C)C4)CC3)c3cnc(-c4cnn5cccnc45)cc31)OCCN2 [Example 23, (R)-1-methylpyrrolidin-3-yl 1-(2-(1-(6-methoxy-3,4-dihydro-2H-benzo[b][1,4]oxazin-7-yl)-6-(pyrazolo[1,5-a]pyrimidin-3-yl)-1H-pyrazolo[4,3-c]pyridine-3-carboxamido)ethyl)piperidine-4-carboxylate]",5.01 to 50.1,≤ 5.01,≤ 5.01,≤ 5.01,5.01 to 50.1,kkk (200>ratio≥100)
"CCOC(=O)COC(=O)Nc1nn(-c2cc3c(cc2OC)NCCS3)c2cc(-c3cnn4cccnc34)ncc12 [Example 3, ethyl 2-(((1-(6-methoxy-3,4-dihydro-2H-benzo[b][1,4]thiazin-7-yl)-6-(pyrazolo[1,5-a]pyrimidin-3-yl)-1H-pyrazolo[4,3-c]pyridin-3-yl)carbamoyl)oxy)acetate]",5.01 to 50.1,≤ 5.01,≤ 5.01,≤ 5.01,≤ 5.01,kkkk (ratio≥200)
"COc1cc2c(cc1-n1nc(C(=O)NCCN3CCC(C(=O)OCC(C)(C)O)CC3)c3cnc(-c4cnn5cccnc45)cc31)OCCN2 [Example 14, 2-hydroxy-2-methylpropyl 1-(2-(1-(6-methoxy-3,4-dihydro-2H-benzo[b][1,4]oxazin-7-yl)-6-(pyrazolo[1,5-a]pyrimidin-3-yl)-1H-pyrazolo[4,3-c]pyridine-3-carboxamido)ethyl)piperidine-4-carboxylate]",5.01 to 50.1,≤ 5.01,≤ 5.01,≤ 5.01,≤ 5.01,kkkk (ratio≥200)

# Second part, led by results:
IC50 [1] [nM],IC50 [3] [nM],IC50 [4] [nM],IC50 [5] [nM],SMILES,IC50 [2] [nM],Fold difference parent vs predicted acid metabolite [2]
5.01 to 50.1,≤ 5.01,≤ 5.01,≤ 5.01,"COc1cc2c(cc1-n1nc(C(=O)NCCN3CCC(C(=O)OC4CCOCC4)CC3)c3cnc(-c4cnn5cccnc45)cc31)OCCN2 [Example 17, tetrahydro-2H-pyran-4-yl 1-(2-(1-(6-methoxy-3,4-dihydro-2H-benzo[b][1,4]oxazin-7-yl)-6-(pyrazolo[1,5-a]pyrimidin-3-yl)-1H-pyrazolo[4,3-c]pyridine-3-carboxamido)ethyl)piperidine-4-carboxylate]",≤ 5.01,kkkk (ratio≥200)
5.01 to 50.1,≤ 5.01,5.01 to 50.1,≤ 5.01,"COc1cc2c(cc1-n1nc(C(=O)NCCN3CCC(C(=O)OC4CCN(C)C4)CC3)c3cnc(-c4cnn5cccnc45)cc31)OCCN2 (stereo not drawn) [Example 22, 1-methylpyrrolidin-3-yl 1-(2-(1-(6-methoxy-3,4-dihydro-2H-benzo[b][1,4]oxazin-7-yl)-6-(pyrazolo[1,5-a]pyrimidin-3-yl)-1H-pyrazolo[4,3-c]pyridine-3-carboxamido)ethyl)piperidine-4-carboxylate]",5.01 to 50.1,kkk (200>ratio≥100)
